What is called Ki is the dissociation constant of the complex between target and ligand, obtained from inhibition or displacement. One may read the EC50 as the concentration needed to bring the measured effect to its halfway point.

Numbered stars: 1 amine (or outer) side, 2 acyl side, 3 side chain; on linkers, the order of the positions; unused ones are H or OH. Square brackets hold non-standard residues; d marks the D form. Side chains are listed from the residue outwards. Peptide text beside a SMILES is read from it. * marks the point of attachment. C20 diacid = O=C(O)CCCCCCCCCCCCCCCCCCC(=O)*; γGlu = O=C(O)[C@H](CCC(=O)[*:2])N[*:1]; αMeL = CC(C)C[C@](C)(N)C(=O)O; AEEA = NCCOCCOCC(=O)O; Aib = CC(C)(N)C(=O)O

These results are taken from patent publication US12252524B2, “GIP/GLP1 co-agonist compounds” (Eli Lilly and Company, priority 2018, dated 2025).

Assay [1] has as its target T1, human GIP receptor (Homo sapiens, UniProt P48546).
T1 construct: expressed in transfected cells; crude membranes
T1 sequence (P48546 22-466): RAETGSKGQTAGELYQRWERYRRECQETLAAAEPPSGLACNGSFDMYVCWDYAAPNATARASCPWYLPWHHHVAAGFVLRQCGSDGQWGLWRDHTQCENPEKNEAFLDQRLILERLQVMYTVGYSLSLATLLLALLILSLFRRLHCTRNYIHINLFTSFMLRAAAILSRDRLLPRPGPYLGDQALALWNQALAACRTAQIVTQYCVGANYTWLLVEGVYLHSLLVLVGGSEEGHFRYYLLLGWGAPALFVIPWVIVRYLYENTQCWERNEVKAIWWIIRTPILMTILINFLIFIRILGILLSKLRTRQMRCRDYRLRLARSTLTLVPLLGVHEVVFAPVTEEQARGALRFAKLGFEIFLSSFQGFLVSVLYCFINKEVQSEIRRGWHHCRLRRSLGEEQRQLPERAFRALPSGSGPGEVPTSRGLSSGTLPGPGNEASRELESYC
The experiment in a line: [125I]-GIP binding (SPA), human GIP receptor. Particulars: read-out: hGIPR Ki, nM (SEM, n).

The target of assay [2] is T2, gastric inhibitory peptide receptor (GIPR) (Homo sapiens, UniProt P48546).
T2 sequence (P48546 22-466): T1 sequence (P48546 22-466)
Put plainly: cAMP pharmacological functional assay in presence of casein, hGIPR. The class given is cell-based. The following applies: HEK293 cells expressing hGIPR, 0.1% Casein, geometric mean; read-out: hGIPR cAMP Rel EC50 nM (SEM, n).

For assay [3], the target named is T3, human Gcg receptor (Homo sapiens, UniProt P47871).
T3 construct: expressed in transfected cells; crude membranes
Put plainly: [125I]-Glucagon binding (SPA), human Gcg receptor. The following applies: read-out: hGLcgR Ki, nM (SEM, n). An outline of the steps: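 Crude membranes from cells expressing the receptor, prepared by hypotonic lysis in 50 mM Tris HCl pH 7.5 with protease inhibitors, homogenization and differential centrifugation, were used in a WGA-bead SPA. Binding buffer: 25 mM HEPES pH 7.4, 2.5 mM CaCl2, 1 mM MgCl2, bacitracin, Tween-20.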

Assay [4] addresses human GLP-1R (Homo sapiens, UniProt P43220). The experiment in a line: [125I]-GLP-1 binding (SPA), human GLP-1 receptor. Particulars: read-out: hGLP1R Ki, (nM) (SEM, n). Details: expressed in transfected cells; crude membranes. An outline of the steps:
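Assay buffer: HEPES 25 mM, pH 7.4, CaCl2 2.5 mM, MgCl2 1 mM, with EDTA-free protease inhibitors. Receptor came from crude cell membranes prepared by homogenization and centrifugation at 4° C. IC50s came from four-parameter fits (maximum, minimum, IC50, Hill slope) and were expressed as Ki geometric means with SEM.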

In assay [5] the target is human GLP-1 receptor (GLP-1R) (Homo sapiens, UniProt P43220). The experiment in a line: cAMP pharmacological functional assay in presence of casein, hGLP-1R. The format is cell-based. Particulars: HEK293 cells expressing hGLP-1R, 0.1% Casein, geometric mean; read-out: hGLP1R cAMP Rel EC50 nM (SEM, n).
Sequence of human GLP-1 receptor (GLP-1R) (P43220 24-463): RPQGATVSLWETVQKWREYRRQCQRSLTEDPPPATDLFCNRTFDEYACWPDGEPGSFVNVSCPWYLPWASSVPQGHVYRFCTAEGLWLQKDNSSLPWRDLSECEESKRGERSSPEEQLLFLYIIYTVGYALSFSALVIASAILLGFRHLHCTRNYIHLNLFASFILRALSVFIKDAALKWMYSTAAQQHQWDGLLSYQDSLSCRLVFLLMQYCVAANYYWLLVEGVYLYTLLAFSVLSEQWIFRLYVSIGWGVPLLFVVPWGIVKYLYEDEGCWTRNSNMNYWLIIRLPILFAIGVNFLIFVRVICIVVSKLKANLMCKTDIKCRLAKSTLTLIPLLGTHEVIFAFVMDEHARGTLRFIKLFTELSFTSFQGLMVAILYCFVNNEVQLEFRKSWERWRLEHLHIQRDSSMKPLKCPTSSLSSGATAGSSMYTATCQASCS

T3 sequence (P47871 26-477): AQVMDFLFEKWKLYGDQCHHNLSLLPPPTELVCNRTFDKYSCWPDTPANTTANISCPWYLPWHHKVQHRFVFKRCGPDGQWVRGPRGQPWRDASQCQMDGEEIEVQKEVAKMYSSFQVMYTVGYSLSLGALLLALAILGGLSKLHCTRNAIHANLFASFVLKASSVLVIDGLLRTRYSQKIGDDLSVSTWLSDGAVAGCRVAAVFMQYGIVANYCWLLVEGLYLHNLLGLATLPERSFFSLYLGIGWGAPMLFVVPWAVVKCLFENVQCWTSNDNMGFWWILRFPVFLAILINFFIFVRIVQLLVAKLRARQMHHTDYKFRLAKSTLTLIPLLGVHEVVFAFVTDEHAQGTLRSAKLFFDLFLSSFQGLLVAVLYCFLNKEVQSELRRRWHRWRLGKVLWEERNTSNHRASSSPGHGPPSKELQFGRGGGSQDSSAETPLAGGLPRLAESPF
Sequence of human GLP-1R (P43220 24-463): as the sequence (P43220 24-463) above

Take `CC[C@H](C)[C@H](NC(=O)[C@H](CC(C)C)NC(=O)[C@H](Cc1ccc(O)cc1)NC(=O)[C@H](CCC(=O)O)NC(=O)[C@@H](NC(=O)[C@H](Cc1ccccc1)NC(=O)[C@H](C)NC(=O)[C@H](Cc1c[nH]cn1)NC(=O)[C@H](CCC(N)=O)NC(=O)[C@H](C)NC(=O)[C@H](CCCCNC(=O)COCCOCCNC(=O)COCCOCCNC(=O)CC[C@H](NC(=O)CCCCCCCCCCCCCCCCCCC(=O)O)C(=O)O)NC(=O)[C@H](CCC(=O)O)NC(=O)[C@H](CC(=O)O)NC(=O)[C@H](CC(C)C)NC(=O)[C@](C)(CC(C)C)NC(=O)[C@@H](NC(=O)[C@H](CO)NC(=O)[C@H](Cc1ccc(O)cc1)NC(=O)[C@H](CC(=O)O)NC(=O)[C@H](CO)NC(=O)[C@@H](NC(=O)[C@H](Cc1ccccc1)NC(=O)[C@@H](NC(=O)CNC(=O)[C@H](CCC(=O)O)NC(=O)C(C)(C)NC(=O)[C@@H](N)Cc1c[nH]cn1)[C@@H](C)O)[C@@H](C)O)[C@@H](C)CC)[C@@H](C)CC)C(=O)N[C@@H](CCC(=O)O)C(=O)NCC(=O)NCC(=O)N1CCC[C@H]1C(=O)N[C@@H](CO)C(=O)N[C@@H](CO)C(=O)NCC(=O)N[C@@H](C)C(=O)N1CCC[C@H]1C(=O)N1CCC[C@H]1C(=O)N1CCC[C@H]1C(=O)N[C@@H](CO)C(N)=O` [Example 55] (H-H[Aib]EGTFTSDYSI[αMeL]LDEK([AEEA-AEEA-γGlu-C20 diacid])AQHAFIEYLIEGGPSSGAPPPS-NH2): the results for the Ki in assay [1], in assay [3] and in assay [4] were 6.24 nM, over 1100 nM and 7.29 nM, respectively. Besides, the EC50 in assay [2] came out at 5.45 nM; in assay [5] it was 0.0286 nM.

Turning to `CC[C@H](C)[C@H](NC(=O)[C@H](CC(C)C)NC(=O)[C@H](Cc1ccc(O)cc1)NC(=O)[C@H](CCC(=O)O)NC(=O)[C@@H](NC(=O)[C@H](Cc1ccccc1)NC(=O)[C@H](C)NC(=O)[C@H](Cc1c[nH]cn1)NC(=O)[C@H](CCC(N)=O)NC(=O)[C@H](C)NC(=O)[C@H](CCCCNC(=O)COCCOCCNC(=O)COCCOCCNC(=O)CC[C@H](NC(=O)CCCCCCCCCCCCCCCCCCC(=O)O)C(=O)O)NC(=O)[C@H](CCC(=O)O)NC(=O)[C@H](CC(=O)O)NC(=O)[C@H](CC(C)C)NC(=O)[C@](C)(CC(C)C)NC(=O)[C@@H](NC(=O)[C@H](CO)NC(=O)[C@H](Cc1ccc(O)cc1)NC(=O)[C@H](CC(=O)O)NC(=O)[C@H](CO)NC(=O)[C@@H](NC(=O)[C@H](Cc1ccccc1)NC(=O)[C@@H](NC(=O)CNC(=O)[C@H](CCC(=O)O)NC(=O)C(C)(C)NC(=O)[C@@H](N)Cc1ccc(O)cc1)[C@@H](C)O)[C@@H](C)O)[C@@H](C)CC)[C@@H](C)CC)C(=O)N[C@@H](CCC(=O)O)C(=O)NCC(=O)NCC(=O)N1CCC[C@H]1C(=O)N[C@@H](CO)C(=O)N[C@@H](CO)C(=O)NCC(=O)N[C@@H](C)C(=O)N1CCC[C@H]1C(=O)N1CCC[C@H]1C(=O)N1CCC[C@H]1C(=O)N[C@@H](CO)C(N)=O` [Example 56] (H-Y[Aib]EGTFTSDYSI[αMeL]LDEK([AEEA-AEEA-γGlu-C20 diacid])AQHAFIEYLIEGGPSSGAPPPS-NH2), the values for the Ki in assay [1], in assay [3] and in assay [4] were 0.148 nM, over 1060 nM and 10.3 nM, respectively. In addition, the EC50 in assay [2] stood at 0.167 nM; in assay [5] it was 0.136 nM.

Consider `CC[C@H](C)[C@H](NC(=O)[C@H](CC(C)C)NC(=O)[C@H](Cc1ccc(O)cc1)NC(=O)[C@H](CCC(=O)O)NC(=O)[C@@H](NC(=O)[C@H](Cc1ccccc1)NC(=O)[C@H](C)NC(=O)C(C)(C)NC(=O)[C@H](CCC(N)=O)NC(=O)[C@H](C)NC(=O)[C@H](CCCCNC(=O)COCCOCCNC(=O)COCCOCCNC(=O)CC[C@H](NC(=O)CCCCCCCCCCCCCCCCCCC(=O)O)C(=O)O)NC(=O)[C@H](CCCCN)NC(=O)[C@H](CC(=O)O)NC(=O)[C@H](CC(C)C)NC(=O)[C@H](CC(C)C)NC(=O)[C@@H](NC(=O)[C@H](CO)NC(=O)[C@H](Cc1ccc(O)cc1)NC(=O)[C@H](CC(=O)O)NC(=O)[C@H](CO)NC(=O)[C@@H](NC(=O)[C@](C)(Cc1ccccc1)NC(=O)[C@@H](NC(=O)CNC(=O)[C@H](CCC(=O)O)NC(=O)C(C)(C)NC(=O)[C@@H](N)Cc1ccc(O)cc1)[C@@H](C)O)[C@@H](C)O)[C@@H](C)CC)[C@@H](C)CC)C(=O)N[C@@H](CCC(=O)O)C(=O)NCC(=O)NCC(=O)N1CCC[C@H]1C(=O)N[C@@H](CO)C(=O)N[C@@H](CO)C(=O)NCC(=O)N[C@@H](C)C(=O)N1CCC[C@H]1C(=O)N1CCC[C@H]1C(=O)N1CCC[C@H]1C(=O)N[C@@H](CO)C(N)=O` [Example 57], for which the Ki worked out at 0.0583 nM in assay [1], 26.1 nM in assay [3] and 3 nM in assay [4]. Also, the concentration for a half-maximal effect (EC50) in assay [2] stood at 0.0849 nM; in assay [5], 0.0668 nM.

For the compound `CC[C@H](C)[C@H](NC(=O)[C@H](CC(C)C)NC(=O)[C@H](Cc1ccc(O)cc1)NC(=O)[C@H](CCC(=O)O)NC(=O)[C@@H](NC(=O)[C@H](Cc1ccccc1)NC(=O)[C@H](C)NC(=O)C(C)(C)NC(=O)[C@H](CCC(N)=O)NC(=O)[C@H](C)NC(=O)[C@H](CCCCNC(=O)COCCOCCNC(=O)COCCOCCNC(=O)CC[C@H](NC(=O)CCCCCCCCCCCCCCCCCCC(=O)O)C(=O)O)NC(=O)[C@H](CCCCN)NC(=O)[C@H](CC(=O)O)NC(=O)[C@H](CC(C)C)NC(=O)[C@H](CC(C)C)NC(=O)[C@H](CO)NC(=O)[C@H](CO)NC(=O)[C@H](Cc1ccc(O)cc1)NC(=O)[C@H](CC(=O)O)NC(=O)[C@H](CO)NC(=O)[C@@H](NC(=O)[C@H](Cc1ccccc1)NC(=O)[C@@H](NC(=O)CNC(=O)[C@H](CCC(=O)O)NC(=O)C(C)(C)NC(=O)[C@@H](N)Cc1ccc(O)cc1)[C@@H](C)O)[C@@H](C)O)[C@@H](C)CC)C(=O)N[C@@H](CCC(=O)O)C(=O)NCC(=O)NCC(=O)N1CCC[C@H]1C(=O)N[C@@H](CO)C(=O)N[C@@H](CO)C(=O)NCC(=O)N[C@@H](C)C(=O)N1CCC[C@H]1C(=O)N1CCC[C@H]1C(=O)N1CCC[C@H]1C(=O)N[C@@H](CO)C(N)=O` [Example 58] (H-Y[Aib]EGTFTSDYSSLLDKK([AEEA-AEEA-γGlu-C20 diacid])AQ[Aib]AFIEYLIEGGPSSGAPPPS-NH2; N-terminus assumed), the results for the Ki in assay [1], in assay [3] and in assay [4] were 0.105 nM, 339 nM and 2.77 nM, respectively. The values for the concentration for a half-maximal effect (EC50) in assay [2] and in assay [5] were 0.266 nM and 0.18 nM, respectively.

For the compound `CC[C@H](C)[C@H](NC(=O)[C@H](CC(C)C)NC(=O)[C@H](Cc1ccc(O)cc1)NC(=O)[C@H](CCC(=O)O)NC(=O)[C@@H](NC(=O)[C@H](Cc1ccccc1)NC(=O)[C@H](C)NC(=O)C(C)(C)NC(=O)[C@H](CCC(N)=O)NC(=O)[C@H](C)NC(=O)[C@H](CCCCNC(=O)COCCOCCNC(=O)COCCOCCNC(=O)CC[C@H](NC(=O)CCCCCCCCCCCCCCCCCCC(=O)O)C(=O)O)NC(=O)[C@H](CCC(=O)O)NC(=O)[C@H](CC(=O)O)NC(=O)[C@H](CC(C)C)NC(=O)[C@](C)(CC(C)C)NC(=O)[C@@H](NC(=O)[C@H](CO)NC(=O)[C@H](Cc1ccc(O)cc1)NC(=O)[C@H](CC(=O)O)NC(=O)[C@H](CO)NC(=O)[C@@H](NC(=O)[C@H](Cc1ccccc1)NC(=O)[C@@H](NC(=O)CNC(=O)[C@H](CCC(=O)O)NC(=O)C(C)(C)NC(=O)[C@@H](N)Cc1ccc(O)cc1)[C@@H](C)O)[C@@H](C)O)[C@@H](C)CC)[C@@H](C)CC)C(=O)N[C@@H](CCC(=O)O)C(=O)NCC(=O)NCC(=O)N1CCC[C@H]1C(=O)N[C@@H](CO)C(=O)N[C@@H](CO)C(=O)NCC(=O)N[C@@H](C)C(=O)N1CCC[C@H]1C(=O)N1CCC[C@H]1C(=O)N1CCC[C@H]1C(=O)N[C@@H](CO)C(N)=O` [Example 59] (H-Y[Aib]EGTFTSDYSI[αMeL]LDEK([AEEA-AEEA-γGlu-C20 diacid])AQ[Aib]AFIEYLIEGGPSSGAPPPS-NH2), the Ki in assay [1] was 0.136 nM; in assay [3] it was 292 nM; in assay [4] it was 8.2 nM. Moreover, the EC50 in assay [2] is 0.0922 nM; in assay [5], 0.084 nM.
